Drawing on PubChem BioAssay (NCI), this text covers TGI for nine compounds.

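How tested: cells in 96-well plates exposed to compound for 48 hours at five concentrations. TGI: concentration producing complete growth inhibition.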

Among the test systems are A549 NSCLC; ACHN renal; COLO 205 colon; DU-145 prostate; EKVX NSCLC; HCC-2998 colon; HCT-15 colon; KM12 colon; M14 melanoma; MDA-MB-231 breast; SF-268 CNS; SF-295 CNS; SK-MEL-2 melanoma; SK-MEL-28 melanoma; UACC-257 melanoma; UACC-62 melanoma; A498 renal.
Experiment in all cases: growth of human tumour cells (NCI), 48 h

As to `CC1(C)CN=C(Nc2ccc(F)c(F)c2)S1`, the TGI with A549 NSCLC, in the experiment on ACHN renal, with COLO 205 colon, in the experiment on DU-145 prostate, in the experiment on EKVX NSCLC and with HCC-2998 colon was over 100 µM in each case. Moreover, the TGI in the experiment on HCT-15 colon, in the experiment on KM12 colon, in the experiment on M14 melanoma, in the experiment on MDA-MB-231 breast, with SF-268 CNS and with SF-295 CNS was over 100 µM throughout. The TGI in the experiment with SK-MEL-2 melanoma, with SK-MEL-28 melanoma, in the experiment with UACC-257 melanoma and in the experiment on UACC-62 melanoma was over 100 µM throughout.

Turning to `Cc1cc(C)n(C(=O)CSc2nnc(SCC(=O)n3nc(C)cc3C)s2)n1`, the TGI with A498 renal, in the experiment with A549 NSCLC, with ACHN renal, in the experiment with COLO 205 colon, in the experiment with DU-145 prostate and in the experiment on EKVX NSCLC was over 100 µM throughout. Also, the TGI with HCC-2998 colon, with HCT-15 colon, in the experiment with KM12 colon, in the experiment on M14 melanoma, with MDA-MB-231 breast and with SF-268 CNS was over 100 µM throughout. For the same compound, the TGI in the experiment on SF-295 CNS, with SK-MEL-28 melanoma, in the experiment with UACC-257 melanoma and with UACC-62 melanoma was over 100 µM throughout.

Turning to `CN(C)c1ccc(C(=NN)c2ccc(N(C)C)cc2)cc1`, the TGI was over 81.7 µM in the experiment on A498 renal; over 100 µM in the experiment on A549 NSCLC; over 78.7 µM in the experiment with ACHN renal; over 35 µM in the experiment with DU-145 prostate; over 100 µM with EKVX NSCLC; 3.73 µM with HCC-2998 colon. For the same compound, the TGI with HCT-15 colon is over 40.9 µM; in the experiment with KM12 colon, over 100 µM; in the experiment with M14 melanoma, over 100 µM; with MDA-MB-231 breast, 10 µM; with SF-268 CNS, over 100 µM; in the experiment on SF-295 CNS it was over 21.8 µM. For the same compound, the TGI was 0.445 µM with SK-MEL-2 melanoma, over 100 µM in the experiment on SK-MEL-28 melanoma, 0.813 µM with UACC-257 melanoma and over 100 µM in the experiment on UACC-62 melanoma.

Turning to `O=C(Nc1nc(C23CC4CC(CC(C4)C2)C3)cs1)c1cc2c(ccc3ccccc32)oc1=O`, the TGI in the experiment on A498 renal, with A549 NSCLC, in the experiment with ACHN renal, with COLO 205 colon, in the experiment on DU-145 prostate and in the experiment with EKVX NSCLC was over 100 µM in each case. The TGI with HCC-2998 colon, in the experiment on HCT-15 colon, in the experiment on KM12 colon, with MDA-MB-231 breast, in the experiment with SF-268 CNS and in the experiment on SF-295 CNS was over 100 µM each time. Besides, the TGI in the experiment on SK-MEL-28 melanoma and in the experiment with UACC-257 melanoma was over 100 µM in each case.

Regarding `O=C1NC(S(=O)(=O)O)=NNC12c1ccccc1-c1ccccc12`, the TGI in the experiment on A549 NSCLC, with ACHN renal, in the experiment on COLO 205 colon, in the experiment with DU-145 prostate, with EKVX NSCLC and in the experiment on HCC-2998 colon was over 10 µM in each case. Besides, the TGI in the experiment on HCT-15 colon, in the experiment on KM12 colon, in the experiment with M14 melanoma, with MDA-MB-231 breast, with SF-268 CNS and with SF-295 CNS was over 10 µM in each case. The TGI in the experiment on SK-MEL-28 melanoma, in the experiment with UACC-257 melanoma and in the experiment with UACC-62 melanoma was over 10 µM each time.

Take `CC(=O)OCC(OC(C)=O)C(OC(C)=O)C(OC(C)=O)C(/C=N\Nc1nc2ccccc2c(=O)[nH]1)=N/Nc1nc2ccccc2c(=O)[nH]1` (stereo unspecified): the TGI with A549 NSCLC, in the experiment on ACHN renal, in the experiment with COLO 205 colon, with DU-145 prostate, in the experiment with EKVX NSCLC and in the experiment with HCC-2998 colon was over 100 µM each time. Further, the TGI with HCT-15 colon, in the experiment on KM12 colon, with M14 melanoma, with MDA-MB-231 breast, in the experiment on SF-268 CNS and in the experiment with SF-295 CNS was over 100 µM each time. The TGI with SK-MEL-2 melanoma, in the experiment on SK-MEL-28 melanoma, with UACC-257 melanoma and in the experiment with UACC-62 melanoma was over 100 µM throughout.

Turning to `N#CCCN(CCC#N)c1ccc(C(N=Nc2ccc(Cl)cc2)=Nc2ccc(F)cc2)cc1`, the TGI in the experiment with A498 renal, with A549 NSCLC, with ACHN renal, in the experiment with COLO 205 colon, in the experiment on DU-145 prostate and with EKVX NSCLC was over 100 µM in each case. The TGI with HCC-2998 colon, in the experiment with HCT-15 colon, with KM12 colon, in the experiment on M14 melanoma, in the experiment with MDA-MB-231 breast and in the experiment on SF-268 CNS was over 100 µM throughout. Moreover, the TGI with SF-295 CNS, with SK-MEL-28 melanoma, in the experiment with UACC-257 melanoma and in the experiment with UACC-62 melanoma was over 100 µM throughout.

On to `NC(N)=NS(=O)(=O)c1ccc(NC(=O)c2ccc3[nH]c4ccccc4c(=O)c3c2)cc1`, for which the TGI with A549 NSCLC, in the experiment on ACHN renal, in the experiment with COLO 205 colon, in the experiment with DU-145 prostate, with EKVX NSCLC and with HCC-2998 colon was over 100 µM in each case. Also, the TGI in the experiment on HCT-15 colon, in the experiment with KM12 colon, in the experiment on M14 melanoma, in the experiment on MDA-MB-231 breast, in the experiment with SF-268 CNS and in the experiment on SF-295 CNS was over 100 µM throughout. In addition, the TGI in the experiment on SK-MEL-2 melanoma, in the experiment on SK-MEL-28 melanoma, with UACC-257 melanoma and in the experiment on UACC-62 melanoma was over 100 µM in each case.

As to `O=C1/C(=C/c2cccs2)NC(=S)N1CN1CCCC(CO)C1` (stereo unspecified), the TGI in the experiment on A498 renal, with A549 NSCLC, in the experiment on ACHN renal, with COLO 205 colon, in the experiment on DU-145 prostate and in the experiment on EKVX NSCLC was over 100 µM each time. The TGI in the experiment on HCT-15 colon, in the experiment with KM12 colon, in the experiment with M14 melanoma, with MDA-MB-231 breast, in the experiment on SF-268 CNS and in the experiment with SF-295 CNS was over 100 µM each time. Besides, the TGI in the experiment with SK-MEL-2 melanoma, in the experiment on SK-MEL-28 melanoma, in the experiment on UACC-257 melanoma and with UACC-62 melanoma was over 100 µM in each case.
